Our source for the binding values is PMC8609307 (2021).

Each structure is given as a SMILES string.

The subject of assay [1] is EC-28, Cy3-Cy5 dual-labeled (RNA, riboswitch, azido-uridine analog at 14) GUUCUCAACGGGGUGCCACGCGUACGCG
Description: smFRET. The following applies: 20 mM MgCl2, 20 mM NaCl; tested at 1 mM TPP.

The test system of assay [2] is EC-104, Cy3-Cy5 dual-labeled (RNA, riboswitch, azido-uridine analog at 14) GUUCUCAACGGGGUGCCACGCGUACGCGUGCGCUGAGAAAAUACCCGUCGAACCUGAUCCGGAUAACGCCGGCGAAGGGAUUUGAGGCUCCUUCUCAAGUCCUU
Description: smFRET. The following applies: 20 mM MgCl2, 20 mM NaCl; 1 mM TPP.

Assay [3] relates to EC-88 G37C, Cy3-Cy5 dual-labeled (RNA, riboswitch, azido-uridine analog at 14) GUUCUCAACGGGGUGCCACGCGUACGCGUGCGCUGACAAAAUACCCGUCGAACCUGAUCCGGAUAACGCCGGCGAAGGGAUUUGAGGC
Description: smFRET. The following applies: 20 mM MgCl2, 20 mM NaCl; tested at 1 mM TPP.

Assay [4] concerns EC-136, Cy3-Cy5 dual-labeled (RNA, riboswitch, azido-uridine analog at 14) GUUCUCAACGGGGUGCCACGCGUACGCGUGCGCUGAGAAAAUACCCGUCGAACCUGAUCCGGAUAACGCCGGCGAAGGGAUUUGAGGCUCCUUCUCAAGUCCUUUGCCACUCUUUUUUGAGGUGCAAAGUGUUAAA
Description: smFRET. The following applies: 20 mM MgCl2, 20 mM NaCl; poor folding at 1 mM TPP; none at 10 µM TPP.

The test system of assay [5] is EC-117, Cy3-Cy5 dual-labeled (RNA, riboswitch, azido-uridine analog at 14) GUUCUCAACGGGGUGCCACGCGUACGCGUGCGCUGAGAAAAUACCCGUCGAACCUGAUCCGGAUAACGCCGGCGAAGGGAUUUGAGGCUCCUUCUCAAGUCCUUUGCCACUCUUUUU
Description: smFRET. The following applies: 20 mM MgCl2, 20 mM NaCl; 1 mM and 10 µM TPP.

Assay [6] deals with EC-83 nascent transcript (RNA, riboswitch) GUUCUCAACGGGGUGCCACGCGUACGCGUGCGCUGAGAAAAUACCCGUCGAACCUGAUCCGGAUAACGCCGGCGAAGGGAUUU
Description: RNase H cleavage protection. The following applies: 20 mM MgCl2, 20 mM NaCl (transcription buffer); stalled at pause site 83; Kswitch plot Figure 2D.

Assay [7] relates to EC-88 WT, Cy3-Cy5 dual-labeled (RNA, riboswitch, azido-uridine analog at 14) GUUCUCAACGGGGUGCCACGCGUACGCGUGCGCUGAGAAAAUACCCGUCGAACCUGAUCCGGAUAACGCCGGCGAAGGGAUUUGAGGC
Description: smFRET. The following applies: 20 mM MgCl2, 20 mM NaCl; 1 mM TPP.

The subject of assay [8] is 117-nt transcript without RNAP, Cy3-Cy5 dual-labeled (RNA, riboswitch, azido-uridine analog at 14) GUUCUCAACGGGGUGCCACGCGUACGCGUGCGCUGAGAAAAUACCCGUCGAACCUGAUCCGGAUAACGCCGGCGAAGGGAUUUGAGGCUCCUUCUCAAGUCCUUUGCCACUCUUUUU
Description: smFRET. The following applies: 20 mM MgCl2, 20 mM NaCl; tested at 1 mM TPP; no RNAP.

Take `Cc1ncc(C[n+]2csc(CCOP(=O)(O)OP(=O)(O)O)c2C)c(N)n1`: the binding entry in assay [1] is given as “no”; in assay [2] it was “yes”; in assay [3], “no”; in assay [4], “weak”; in assay [5] it was “yes”; in assay [6], “no”. The binding entry in assay [7] is given as “yes”; in assay [8] it was “no”.
